# Experimental data published in the supplement of paper PMC4862054.
# Experiments:
# Experiment in all cases: normalised response (% of control), CellTiter-Glo; higher = more viable cells (100 = DMSO, 0 = benzethonium chloride kill control)
# Conditions in all cases: incubation time: 72 h
# BT-474 = tested on: BT-474
# How it was run: (§1)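 The table gives the normalised signal for a single concentration in each entry. Breast cancer cell lines were seeded (20 µl suspension) into 384-well plates holding compound at 5 concentrations in 10-fold steps over a compound-specific 10,000-fold range and incubated 72 h, then read for CellTox Green fluorescence (485/520 nm) and CellTiter-Glo luminescence. Normalisation on each plate used 0.1 % DMSO (100) and a positive kill control (0).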
# CAL-85-1 = tested on: CAL-85-1
# How it was run: as §1
# DU-4475 = tested on: DU-4475
# How it was run: as §1
# HCC1143 = tested on: HCC1143
# How it was run: as §1
# HCC1599 = tested on: HCC1599
# How it was run: as §1
# HCC1937 = tested on: HCC1937
# How it was run: as §1
# HDQ-P1 = tested on: HDQ-P1
# How it was run: as §1
# Hs578T = tested on: Hs578T
# How it was run: as §1
# MCF-10A = tested on: MCF-10A
# How it was run: as §1
# MDA-MB-231 = tested on: MDA-MB-231
# How it was run: as §1
# MDA-MB-436 = tested on: MDA-MB-436
# How it was run: as §1
# MDA-MB-453 = tested on: MDA-MB-453
# How it was run: as §1
# MDA-MB-468 = tested on: MDA-MB-468
# How it was run: as §1
# SK-BR-3 = tested on: SK-BR-3
# How it was run: as §1
SMILES,normalised response (BT-474),normalised response (CAL-85-1),normalised response (DU-4475),normalised response (HCC1143),normalised response (HCC1599),normalised response (HCC1937),normalised response (HDQ-P1),normalised response (Hs578T),normalised response (MCF-10A),normalised response (MDA-MB-231),normalised response (MDA-MB-436),normalised response (MDA-MB-453),normalised response (MDA-MB-468),normalised response (SK-BR-3)
Cn1cc(C2=Nc3cc(NC(=O)C(N)C4CCCCC4)cc4c3C2=CNNC4=O)cn1 (stereo unspecified) (10000 nM),38.3%,26.7%,48.4%,14.7%,10.9%,21.2%,48.6%,26.6%,38.6%,37.3%,22.6%,46.6%,12.4%,8.5%
COc1cc2c(cc1O)CC[C@@H]1[C@@H]2CC[C@]2(C)[C@@H](O)CC[C@@H]12 [2-methoxyestradiol] (10000 nM),58.1%,33.3%,42.2%,49.3%,31.6%,68.5%,73.7%,25.4%,67.1%,51.9%,44.7%,59.7%,34.4%,17.1%
Cc1sc2c(c1C)C(c1ccc(Cl)cc1)=N[C@@H](CC(=O)OC(C)(C)C)c1nnc(C)n1-2 [(+)JQ1] (10000 nM),66.1%,27.9%,20.4%,58.3%,85.5%,68.2%,71.1%,41.3%,46.5%,64.2%,76.4%,32.6%,36.6%,53.2%
Oc1ncnc2[nH]ncc12 [Allopurinol] (10000 nM),97.9%,106%,99.7%,104%,102%,102%,95.1%,102%,105%,103%,101%,111%,97.9%,114%
O=C1CN2Cc3c(ccc(Cl)c3Cl)N=C2N1 [Anagrelide] (10000 nM),88%,94.4%,98.9%,93%,97%,97.9%,90.9%,80.5%,105%,99.5%,96%,100%,92%,102%
Nc1ncn([C@@H]2O[C@H](CO)[C@@H](O)[C@H]2O)c(=O)n1 [Azacitidine] (10000 nM),71.4%,106%,60.7%,75%,76.1%,69.3%,63%,58.9%,77%,68%,54.7%,102%,17%,92.4%
O=NN(CCCl)C(=O)NCCCl [Carmustine] (10000 nM),91.5%,101%,96.5%,106%,104%,99.6%,96.1%,101%,93.8%,99.9%,96.7%,87.3%,97.3%,95.2%
CC1=C2C[C@H]3[C@@H](CC=C4C[C@@H](O)CC[C@@]43C)[C@@H]2CC[C@]12O[C@@H]1C[C@H](C)CN[C@H]1[C@H]2C [Cyclopamine] (10000 nM),113%,104%,105%,93.2%,107%,97.1%,86%,101%,108%,106%,84.6%,103%,51.5%,102%
CC(=O)O[C@@]12CO[C@@H]1C[C@H](O)[C@@]1(C)C(=O)[C@H](O)C3=C(C)[C@@H](OC(=O)[C@H](O)[C@@H](NC(=O)OC(C)(C)C)c4ccccc4)C[C@@](O)([C@@H](OC(=O)c4ccccc4)[C@H]21)C3(C)C [Docetaxel] (1000 nM),39.3%,28.9%,44%,38.3%,29.6%,73.8%,64.2%,13.6%,48%,28.5%,32.8%,44.4%,34.9%,10.7%
CC1(C)CNc2cc(NC(=O)c3cccnc3NCc3ccncc3)ccc21 [Motesanib] (10000 nM),90.9%,95.8%,98.6%,94.8%,107%,97.8%,92.5%,91.8%,95.4%,93.5%,95%,91.6%,87.6%,86.3%
CC[C@@H]1C(=O)OC[C@@H]1Cc1cncn1C [Pilocarpine] (40000 nM),91.6%,94.6%,95.7%,89.6%,104%,96.7%,91.9%,99%,99.1%,93.4%,89.7%,92.7%,96%,102%
CC(C)(C)c1cnc(CSc2cnc(NC(=O)C3CCNCC3)s2)o1 [SNS-032] (10000 nM),31.8%,7.47%,10.3%,15.1%,7.5%,38.6%,24.3%,8.34%,17.1%,8.77%,18.2%,56.4%,6.47%,4.26%
Cn1cnc2c(F)c(Nc3ccc(Br)cc3Cl)c(C(=O)NOCCO)cc21 [Selumetinib] (10000 nM),55.5%,61%,0.53%,76.6%,72.7%,76.3%,56.3%,76.4%,31.8%,62.4%,85.4%,93.8%,69.9%,92%
Nc1nc2[nH]cnc2c(=S)[nH]1 [Thioguanine] (10000 nM),40.8%,51.7%,24.1%,66.7%,28.2%,35.8%,31.8%,33.2%,66.9%,33.4%,31.3%,79%,48.9%,62.1%
